Laboratory results: patent publication US20070155660A1, “Inhibition of voluntary ethanol consumption with selective melanocortin 4-receptor agonists” (priority 2003, published 2007)
Bridge positions count the residues as written; N and C are the ends. Square brackets hold non-standard residues; d marks the D form. Peptide text beside a SMILES is read from it. βAla = NCCC(=O)O

Columns and labels:
MC5R [1] = target: T1, MC5R (Homo sapiens, UniProt P33032); test: cAMP assay in CHO cells expressing a human melanocortin receptor; type: cell-based; set-up: expressed in transfected cells; host or cells: Chinese hamster ovary (CHO) cells
Experimental: (§1) Chinese hamster ovary cells expressing a human melanocortin receptor were rinsed with calcium-and magnesium-free PBS (Life Technologies), and detached from the tissue culture flasks by 5-minutes incubation with enzyme-free dissociation buffer (S-014-B, Specialty Media). Cells were collected by centrifugation and resuspended in Earle's balanced salt solution (Life Technologies) with addition of 10 mM 4-(2-hydroxyethyl)-1-piperazineethanesulfonic acid (Hepes) buffer, pH 7.5, 5 mM MgCl2, 1 mM glutamine, and 1 mg/ml bovine serum albumin to concentration of 1-5×10^6 cells/ml. Subsequently, cells were counted and the cell suspension was treated with the phosphodiesterase inhibitor 3-isobutyl-1-methylxanthine (to concentration of 0.6 mM).
(§2) A test compound was dissolved in dimethyl sulfoxide (DMSO, 10^−3 to 10^−8 M), diluted with buffer and 0.1 volume of the solution was added to 0.9 volumes of the cell suspension (1 to 5×10^5 cells); final concentration of DMSO was 1%. After 45 minutes at room temperature, cells were lysed by incubation at 100° C. for 5 minutes to release accumulated cAMP. Accumulation of cAMP was measured in an aliquot of the cell lysate with the Amersham (Arlington Heights, Ill.) cAMP detection assay kit (RPA556). The amount of cAMP produced in response to a tested compound was compared to the amount of cAMP produced in response to α-MSH, defined as a 100% agonist. All active peptides were characterized in three independent experiments.

MC4R [2] = target: T2, MC4R (Homo sapiens, UniProt P32245); test: as above; type: cell-based; set-up: expressed in transfected cells; host or cells: Chinese hamster ovary (CHO) cells
Experimental: as §1, §2

hMC-3R [3] = target: T3, hMC-3R (Homo sapiens, UniProt P41968); test: Competitive binding assay, [125I]-NDP-α-MSH, CHO cell membranes; conditions: read-out: Binding Assay IC50 hMC-3R
T3 construct: expressed in transfected cells; host or cells: Chinese hamster ovary (CHO) cells
Experimental: The peptides of the present invention were evaluated for […] in receptor binding assay. Crude membrane preparations were obtained from Chinese hamster ovary cells expressing human MC3, MC4, and MC5 receptors. Cells were rinsed with phosphate-buffered saline (PBS) lacking CaCl2 or MgCl2 (Life Technologies, Gaithersburg, Md., USA), and then detached with enzyme-free dissociation media (Specialty Media, Lavellette, N.J., USA). Cells were pelleted at 2800×g for 10 minutes and resuspended in membrane buffer (20 mM Tris, pH 7.2, 5 mM ethylenediaminetetraacetic acid) with 5 μg/ml leupeptin, 5 μg/ml aprotinin, 40 μg/ml bacitracin, and 25 μg/m pefabloc (Boehringer Mannheim). […]
Binding reactions (total volume=[…]) contained MBB (50 mM Tris, pH 7.2, 2 mM CaCl2, 1 mM MgCl2), 0.1% bovine serum albumin, crude membranes prepared from cells expressing human MC3, MC4, or MC5 receptor, 200 pM of [125I]-NDP-α-MSH (Amersham, Arlington Heighs, Ill., USA), and increasing concentrations of unlabeled test compounds dissolved in dimethylsulfoxide (final concentration=2%). […] Filters were washed 3 times with TNE buffer (50 mM Tris, pH 7.4, 5 mM ethylenediaminetetraacetic acid, 150 mM NaCl), dried and counted by using Microscint-20 in a Topcount scintillation counter (Packard). Nonspecific binding was determined in the presence of 2 μm of unlabeled NDP-α-MSH (Peninsula Laboratories). […]

hMC-3R [4] = target: T3, hMC-3R; test: cAMP assay in CHO cells expressing a human melanocortin receptor; type: cell-based
Experimental: as §1
as §2, with “All active peptides were characterized in three independent experiments.” left out

hMC-1R = target: T4, hMC-1R (Homo sapiens, UniProt Q01726); test: as above; type: cell-based
T4 construct: expressed in transfected cells; host or cells: Chinese hamster ovary (CHO) cells
Experimental: as §1
as §2, with “All active peptides were characterized in three independent experiments.” left out

MC5R [5] = target: T1, MC5R; test: Competitive binding assay, [125I]-NDP-α-MSH, CHO cell membranes; set-up: expressed in transfected cells; host or cells: Chinese hamster ovary (CHO) cells; conditions: read-out: Binding Assay IC50 hMC-5R
Experimental: (§3) The peptides of the present invention were evaluated for […] in receptor binding assay. Crude membrane preparations were obtained from Chinese hamster ovary cells expressing human MC3, MC4, and MC5 receptors. Cells were rinsed with phosphate-buffered saline (PBS) lacking CaCl2 or MgCl2 (Life Technologies, Gaithersburg, Md., USA), and then detached with enzyme-free dissociation media (Specialty Media, Lavellette, N.J., USA). Cells were pelleted at 2800×g for 10 minutes and resuspended in membrane buffer (20 mM Tris, pH 7.2, 5 mM ethylenediaminetetraacetic acid) with 5 μg/ml leupeptin, 5 μg/ml aprotinin, 40 μg/ml bacitracin, and 25 μg/m pefabloc (Boehringer Mannheim). The cells were […] with 10 strokes by using a motor-driven Teflon-coated pestle in a glass homogenizer at low speed. The resulting cell suspension was centrifuged at 4100×g, 4° C., for 20 minutes. The pellet was resuspended in fresh membrane buffer with protease inhibitors, aliquoted, snap-frozen in liquid nitrogen, and stored at −80° C. The resulting crude membranes were titrated to determine the optimal level necessary for performing binding studies. Results
(§4) Binding reactions (total volume=[…]) contained MBB (50 mM Tris, pH 7.2, 2 mM CaCl2, 1 mM MgCl2), 0.1% bovine serum albumin, crude membranes prepared from cells expressing human MC3, MC4, or MC5 receptor, 200 pM of [125I]-NDP-α-MSH (Amersham, Arlington Heighs, Ill., USA), and increasing concentrations of unlabeled test compounds dissolved in dimethylsulfoxide (final concentration=2%). Reactions were incubated for 1 hour without shaking and then filtered through 96-well filter plates (Packard), presoaked in 1% polyethyleneimine. Filters were washed 3 times with TNE buffer (50 mM Tris, pH 7.4, 5 mM ethylenediaminetetraacetic acid, 150 mM NaCl), dried and counted by using Microscint-20 in a Topcount scintillation counter (Packard). Nonspecific binding was determined in the presence of 2 μm of unlabeled NDP-α-MSH (Peninsula Laboratories). Active peptides were evaluated in three independent experiments.

MC4R [6] = target: T2, MC4R; test: as above; set-up: expressed in transfected cells; host or cells: Chinese hamster ovary (CHO) cells
Experimental: as §3, §4

T2 sequence (P32245 whole entry): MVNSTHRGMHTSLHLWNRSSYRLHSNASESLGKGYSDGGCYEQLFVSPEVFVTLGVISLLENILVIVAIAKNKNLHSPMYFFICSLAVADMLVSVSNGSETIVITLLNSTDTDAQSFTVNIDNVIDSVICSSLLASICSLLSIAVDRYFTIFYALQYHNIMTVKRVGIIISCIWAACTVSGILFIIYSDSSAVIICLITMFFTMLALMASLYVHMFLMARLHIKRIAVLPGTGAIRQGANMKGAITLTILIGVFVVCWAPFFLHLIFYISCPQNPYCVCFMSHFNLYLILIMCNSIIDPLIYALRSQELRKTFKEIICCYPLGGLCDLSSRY
T1 sequence (P33032 whole entry): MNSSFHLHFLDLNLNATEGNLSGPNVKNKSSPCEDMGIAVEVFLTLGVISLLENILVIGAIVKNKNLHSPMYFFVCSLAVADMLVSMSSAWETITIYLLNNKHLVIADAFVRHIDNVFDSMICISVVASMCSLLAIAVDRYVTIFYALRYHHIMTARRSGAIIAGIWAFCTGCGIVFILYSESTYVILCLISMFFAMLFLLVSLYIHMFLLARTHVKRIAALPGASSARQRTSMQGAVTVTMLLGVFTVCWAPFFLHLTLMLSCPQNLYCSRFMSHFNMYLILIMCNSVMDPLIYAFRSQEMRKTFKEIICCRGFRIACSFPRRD
T3 sequence (P41968 whole entry): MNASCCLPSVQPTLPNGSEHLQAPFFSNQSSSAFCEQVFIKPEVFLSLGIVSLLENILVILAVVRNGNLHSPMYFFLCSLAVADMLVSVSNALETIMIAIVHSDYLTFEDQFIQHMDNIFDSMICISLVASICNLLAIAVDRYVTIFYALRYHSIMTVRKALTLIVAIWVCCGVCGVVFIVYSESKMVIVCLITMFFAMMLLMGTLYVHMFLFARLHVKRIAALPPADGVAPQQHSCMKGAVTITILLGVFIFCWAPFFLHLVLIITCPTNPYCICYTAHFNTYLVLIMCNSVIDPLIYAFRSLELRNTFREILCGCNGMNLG
T4 sequence (Q01726 whole entry): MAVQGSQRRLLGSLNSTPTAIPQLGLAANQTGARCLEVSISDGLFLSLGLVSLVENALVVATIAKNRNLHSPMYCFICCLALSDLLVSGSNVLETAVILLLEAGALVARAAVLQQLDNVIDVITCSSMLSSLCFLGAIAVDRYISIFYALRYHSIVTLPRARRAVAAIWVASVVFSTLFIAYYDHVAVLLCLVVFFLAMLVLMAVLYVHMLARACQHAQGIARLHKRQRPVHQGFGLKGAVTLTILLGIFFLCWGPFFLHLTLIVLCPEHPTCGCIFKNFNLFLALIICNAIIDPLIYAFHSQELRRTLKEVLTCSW

EC50 (MC5R [1]): 1900 nM
EC50 (MC4R [2]): 0.53 nM
Selectivity cAMP EC50 1R/4R (MC4R [2]; ratio of EC50 hMC-1R / hMC-4R): 20.75
Selectivity cAMP EC50 3R/4R (MC4R [2]; ratio of EC50 hMC-3R / hMC-4R): 111
Selectivity cAMP EC50 5R/4R (MC4R [2]; ratio of EC50 hMC-5R / hMC-4R): 3585
IC50 (hMC-3R [3]): 490 nM
EC50 (hMC-3R [4]): 59 nM
EC50 (hMC-1R): 11 nM
IC50 (MC5R [5]): 4600 nM
Selectivity Binding IC50 3R/4R (MC4R [6]; ratio of IC50 hMC-3R / hMC-4R): 122.5
Selectivity Binding IC50 5R/4R (MC4R [6]; ratio of IC50 hMC-5R / hMC-4R): 1150
IC50 (MC4R [6]; read-out: Binding Assay IC50 hMC-4R): 4 nM
Compound: N=C(N)NCCC[C@@H]1NC(=O)[C@@H](Cc2ccccc2)NC(=O)[C@H](Cc2c[nH]cn2)NC(=O)CCNC(=O)CC[C@@H](C(N)=O)NC(=O)[C@H](Cc2c[nH]c3ccccc23)NC1=O [Example 8] ([βAla]H[dF]RWE-NH2; lactam N-6 (inferred))
